According to ChEMBL document CHEMBL1127709, “The rational development of small molecule tachykinin NK3 receptor selective antagonists - the utilisation of a dipeptide chemical library in drug design” (Bioorg Med Chem Lett, 1994):
Blank lines part the entries; values can stand above or below the compound they belong to.

What was measured:
[1] = target: T1, Substance-K receptor (Mesocricetus auratus, UniProt P51144); assay: Binding affinity for NK2 receptor binding sites in membranes prepared from hamster urinary bladder by using [125I]NKA as radioligand
T1 sequence (P51144 whole entry): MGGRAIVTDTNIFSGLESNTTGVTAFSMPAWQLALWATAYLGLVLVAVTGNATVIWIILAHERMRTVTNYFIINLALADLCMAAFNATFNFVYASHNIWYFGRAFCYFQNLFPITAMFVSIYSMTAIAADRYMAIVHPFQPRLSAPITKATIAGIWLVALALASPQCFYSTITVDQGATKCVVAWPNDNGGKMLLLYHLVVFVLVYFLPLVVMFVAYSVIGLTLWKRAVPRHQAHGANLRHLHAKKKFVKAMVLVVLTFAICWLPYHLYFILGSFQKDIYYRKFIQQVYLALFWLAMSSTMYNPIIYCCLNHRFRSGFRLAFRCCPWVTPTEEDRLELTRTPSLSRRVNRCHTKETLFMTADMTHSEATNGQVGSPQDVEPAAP

[2] = target: T2, Neuromedin-K receptor (Cavia porcellus, UniProt P30098); assay: Binding affinity for NK3 receptor binding sites in guinea pig cortical membranes by using [125I][MePhe7]-NKB as radioligand; assay type: cell membranes
T2 sequence (P30098 whole entry): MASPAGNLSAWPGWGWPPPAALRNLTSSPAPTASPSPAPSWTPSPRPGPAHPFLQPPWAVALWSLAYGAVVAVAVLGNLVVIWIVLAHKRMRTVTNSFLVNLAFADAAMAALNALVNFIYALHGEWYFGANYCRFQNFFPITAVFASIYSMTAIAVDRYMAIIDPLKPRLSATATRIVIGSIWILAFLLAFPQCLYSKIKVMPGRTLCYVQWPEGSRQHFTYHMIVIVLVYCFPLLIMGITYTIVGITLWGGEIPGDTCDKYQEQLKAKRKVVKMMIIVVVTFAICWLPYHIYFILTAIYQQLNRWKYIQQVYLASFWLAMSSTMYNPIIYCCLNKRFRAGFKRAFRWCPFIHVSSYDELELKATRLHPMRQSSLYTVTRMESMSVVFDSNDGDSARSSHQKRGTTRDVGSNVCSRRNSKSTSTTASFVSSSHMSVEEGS

[3] = target: Substance-P receptor (Homo sapiens, UniProt P25103); assay: Binding affinity for NK1 receptor binding sites in human lymphoma IM9 cells by using [125I]-Bolton-Hunter substance P as radioligand; assay type: cell-based, IM-9
Sequence of Substance-P receptor (P25103 whole entry): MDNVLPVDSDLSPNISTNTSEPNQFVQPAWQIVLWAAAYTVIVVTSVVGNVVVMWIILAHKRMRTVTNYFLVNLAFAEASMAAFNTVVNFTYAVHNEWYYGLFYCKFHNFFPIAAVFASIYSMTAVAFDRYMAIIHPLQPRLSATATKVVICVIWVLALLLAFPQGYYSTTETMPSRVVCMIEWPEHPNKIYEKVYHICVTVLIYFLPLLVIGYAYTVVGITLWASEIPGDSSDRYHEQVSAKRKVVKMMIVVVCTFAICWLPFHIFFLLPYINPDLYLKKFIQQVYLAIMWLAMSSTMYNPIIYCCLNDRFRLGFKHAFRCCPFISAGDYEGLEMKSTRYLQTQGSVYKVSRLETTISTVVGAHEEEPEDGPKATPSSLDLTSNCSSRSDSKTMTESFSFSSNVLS

[4] = species on record: Cavia porcellus; assay: In vitro inhibition of Isometric contractions from longitudinal muscle myenteric plexus preparations with responses to the NK3 receptor selective agonist senktide; assay type: functional
[5] = species on record: Cavia porcellus; assay: In vitro inhibition of senktide-induced increases in spontaneous firing of guinea pig habenula neurones; assay type: functional
[6] = test system: CHO; assay: In vitro inhibition of senktide-evoked increases in intracellular calcium levels in CHO cells using the fluorescent indicator Fura2; assay type: functional, Cricetulus griseus
[7] = target: T3, Neuromedin-K receptor (Homo sapiens, UniProt P29371); assay: Displacement of [125I][MePhe]-NKB from human NK3 receptor expressed in CHO cells; assay type: cell-based
T3 sequence (P29371 whole entry): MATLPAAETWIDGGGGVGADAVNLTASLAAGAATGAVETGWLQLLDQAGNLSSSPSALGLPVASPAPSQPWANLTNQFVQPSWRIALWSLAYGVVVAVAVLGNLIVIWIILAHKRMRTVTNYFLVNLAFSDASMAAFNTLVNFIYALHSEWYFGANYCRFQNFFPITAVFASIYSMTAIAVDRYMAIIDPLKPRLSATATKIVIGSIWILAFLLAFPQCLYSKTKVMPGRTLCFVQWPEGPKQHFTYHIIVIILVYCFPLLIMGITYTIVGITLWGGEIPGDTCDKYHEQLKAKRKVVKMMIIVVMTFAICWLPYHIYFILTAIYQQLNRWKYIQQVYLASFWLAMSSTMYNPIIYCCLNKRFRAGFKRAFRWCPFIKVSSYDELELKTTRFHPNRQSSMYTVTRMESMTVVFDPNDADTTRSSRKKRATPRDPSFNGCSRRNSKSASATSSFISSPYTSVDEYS

IC50 [1]: 5.02 µM | IC50 [2]: 0.015 µM | IC50 [3]: 10 µM
Structure (SMILES): CC(C)(C)OC(=O)N[C@@](C)(Cc1ccccc1)C(=O)N[C@H](Cc1ccccc1)C(=O)NCCCCCCCCC(N)=O
Ke [4]: 13 nM | Ke [5]: 25 nM | Ke [6]: 15 nM

IC50 [7]: 0.102 µM
Structure (SMILES): COCCCCCCCCNC(=O)C(Cc1ccccc1)NC(=O)[C@](C)(Cc1ccccc1)NC(=O)OC(C)(C)C (some centres undefined)

IC50 [3]: 10 µM
Structure (SMILES): CC(C)(C)OC(=O)N[C@@](C)(Cc1ccccc1)C(=O)N[C@H](Cc1ccccc1)C(=O)NCCCCCCCCO

Structure (SMILES): CC(C)(C)OC(=O)N[C@@H](Cc1ccccc1)C(=O)N[C@](C)(Cc1ccccc1)C(=O)NCCCCCCCNC(N)=O
Ke [6]: 7 nM
